From ChEMBL document CHEMBL1153271, “3,4-Diamino-1,2,5-thiadiazole as potent and selective CXCR2 antagonists” (Bioorg Med Chem Lett, 2009)

How the values were obtained:
[1] = target: T1, C-X-C chemokine receptor type 1 (Homo sapiens, UniProt P25024); experiment: Displacement of [125I]CXCL8 from CXCR1 receptor in human PMN assessed as myeloperoxidase release
T1 sequence (P25024 whole entry): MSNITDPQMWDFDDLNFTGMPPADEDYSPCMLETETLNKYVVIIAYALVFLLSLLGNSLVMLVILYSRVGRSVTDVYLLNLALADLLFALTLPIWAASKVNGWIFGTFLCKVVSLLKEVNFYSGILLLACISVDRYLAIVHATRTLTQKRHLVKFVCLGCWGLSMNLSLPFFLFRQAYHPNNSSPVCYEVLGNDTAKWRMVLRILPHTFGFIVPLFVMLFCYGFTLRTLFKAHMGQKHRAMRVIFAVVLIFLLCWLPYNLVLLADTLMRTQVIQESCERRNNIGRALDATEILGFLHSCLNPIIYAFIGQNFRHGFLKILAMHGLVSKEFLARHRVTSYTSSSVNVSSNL

[2] = target: T2, C-X-C chemokine receptor type 2 (Homo sapiens, UniProt P25025); experiment: Displacement of [125I]CXCL1 from CXCR2 receptor in human PMN assessed as myeloperoxidase release
T2 sequence (P25025 whole entry): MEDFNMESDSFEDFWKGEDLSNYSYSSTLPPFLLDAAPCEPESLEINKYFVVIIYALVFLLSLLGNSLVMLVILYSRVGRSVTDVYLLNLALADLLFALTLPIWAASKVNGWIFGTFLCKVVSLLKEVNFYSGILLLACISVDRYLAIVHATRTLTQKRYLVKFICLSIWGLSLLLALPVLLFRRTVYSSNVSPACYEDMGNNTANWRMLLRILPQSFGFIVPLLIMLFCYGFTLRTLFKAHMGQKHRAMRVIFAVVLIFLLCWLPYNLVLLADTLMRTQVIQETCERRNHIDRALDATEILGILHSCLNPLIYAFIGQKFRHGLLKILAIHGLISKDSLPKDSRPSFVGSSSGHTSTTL

[3] = target: T2, C-X-C chemokine receptor type 2; experiment: Displacement of IL8 from CXCR2 receptor
[4] = target: T1, C-X-C chemokine receptor type 1; experiment: Displacement of IL8 from CXCR1 receptor

Structure (SMILES)	IC50 [1]	IC50 [2]	Ki [3]	Ki [4]
Cc1ccc([C@H](Nc2nsnc2Nc2cccc(C(=O)N(C)C)c2O)C(C)C)o1	3910 nM	36 nM	2400 nM	15 nM
CN(C)C(=O)c1cccc(Nc2nsnc2N[C@@H](c2ccc3c(c2)CCC3)C(C)(C)C)c1O	–	–	10000 nM	–
CN(C)C(=O)c1cccc(Nc2nsnc2N[C@@H](c2ccco2)C(C)(C)C)c1O	–	–	381 nM	–
CN(C)C(=O)c1cccc(Nc2nsnc2N[C@@H](c2cc3ccccc3o2)C(C)(C)C)c1O	–	–	2360 nM	–
CC[C@@H](Nc1nsnc1Nc1cccc(C(=O)N(C)C)c1O)c1ccc(C)o1	–	–	3000 nM	–
CC[C@@H](Nc1nsnc1Nc1ccc(C(F)(F)F)c(C(=O)N(C)C)c1O)c1ccc(C)o1	–	–	749 nM	–
CN(CCC#N)C(=O)c1cccc(Nc2nsnc2N[C@@H](c2ccco2)C(C)(C)C)c1O	–	–	44 nM	–
CN(C)C(=O)c1cccc(Nc2nsnc2N[C@@H](c2cccc(F)c2)C(C)(C)C)c1O	–	–	1300 nM	78 nM
Cc1ccc([C@H](Nc2nsnc2Nc2cccc(C(=O)N(C)C)c2O)C(F)(F)F)o1	–	–	10000 nM	53 nM
CC(C)c1coc([C@H](Nc2nsnc2Nc2cccc(C(=O)N(C)CCC#N)c2O)C(C)(C)C)c1	–	–	79 nM	–
CN(C)C(=O)c1cccc(Nc2nsnc2N[C@@H](c2ccc3c(c2)OCCO3)C(C)(C)C)c1O	–	–	10000 nM	–
Cc1ccc([C@H](Nc2nsnc2Nc2cccc(C(=O)N3CCOCC3)c2O)C(C)(C)C)o1	–	–	1270 nM	–
CN(C)C(=O)c1cccc(Nc2nsnc2N[C@@H](c2ccccc2)C2CC2)c1O	–	–	2030 nM	–
Cc1ccc([C@H](Nc2nsnc2Nc2cccc(C(=O)N(C)C)c2O)C(C)(C)C)o1	–	21 nM	91 nM	–
CC[C@@H](Nc1nsnc1Nc1cccc(C(=O)N(C)C)c1O)c1ccccc1	–	–	5110 nM	–
C[C@H](Nc1nsnc1Nc1cccc(C(=O)N(C)C)c1O)C(C)(C)C	–	–	10000 nM	–
CN(C)C(=O)c1cccc(Nc2nsnc2NC(c2ccccc2)C(F)(F)F)c1O (stereo not drawn)	–	–	4300 nM	36 nM
Cc1ccc([C@H](Nc2nsnc2Nc2cccc(C(=O)N(C)C)c2O)C(C)C)s1	–	–	1300 nM	–
CC[C@@H](Nc1nsnc1Nc1cccc(C(=O)N(C)C)c1O)c1cc(C)co1	–	–	2280 nM	–
CC[C@@H](Nc1nsnc1Nc1cccc(C(=O)N(C)C)c1O)c1cc(F)cc(F)c1	–	–	4100 nM	–
Cc1ccc([C@H](Nc2nsnc2Nc2cccc(C(=O)N(C)CCC#N)c2O)C(C)(C)C)o1	–	–	114 nM	13 nM
CN(C)C(=O)c1cccc(Nc2nsnc2N[C@@H](c2ccc3c(c2)OCO3)C(C)(C)C)c1O	–	–	330 nM	52 nM
Cc1ccc([C@H](Nc2nsnc2Nc2ccc(C(F)(F)F)c(C(=O)N(C)C)c2O)C(C)(C)C)o1	–	–	168 nM	38 nM
